Test results: the supplement of paper PMC10307832

How the values were obtained:
Experiment in all cases: relative viability (nuclei count vs DMSO), 5 days (fraction); higher = more cells survive
GSK126 + Luminespib = compound: CC[C@H](C)N1C=C(C2=C(C=C(C=C21)C3=CN=C(C=C3)N4CCNCC4)C(=O)NCC5=C(C=C(NC5=O)C)C)C [GSK126] + CCNC(=O)c1noc(-c2cc(C(C)C)c(O)cc2O)c1-c1ccc(CN2CCOCC2)cc1 [Luminespib] (partner 0.01 µM)
Summary of the method: (§1)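 Lung cancer cell lines, seeded in 1536-well plates, were treated the following day by pin tool with a single drug or with five library-drug doses (not always all listed) in √10 steps on top of a fixed anchor-drug dose. Cells were fixed and nuclei stained in one step after 5 days, and nuclei were counted. Relative viability is the nuclei count for treated wells divided by that for vehicle wells, reported as medians of duplicate plates.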

Carboplatin + Phenformin = compound: C1CC(C1)(C(=O)O)C(=O)O.[NH2-].[NH2-].[Pt+2] [Carboplatin] + N=C(N)NC(=N)NCCc1ccccc1 [Phenformin] (partner 250 µM)
Summary of the method: as §1

GSK126 + Trametinib = compound: CC[C@H](C)N1C=C(C2=C(C=C(C=C21)C3=CN=C(C=C3)N4CCNCC4)C(=O)NCC5=C(C=C(NC5=O)C)C)C [GSK126] + CC(=O)Nc1cccc(-n2c(=O)n(C3CC3)c(=O)c3c(Nc4ccc(I)cc4F)n(C)c(=O)c(C)c32)c1 [Trametinib] (partner 0.02 µM)
Summary of the method: as §1

Carboplatin + Navitoclax = compound: C1CC(C1)(C(=O)O)C(=O)O.[NH2-].[NH2-].[Pt+2] [Carboplatin] + CC1(C)CCC(c2ccc(Cl)cc2)=C(CN2CCN(c3ccc(C(=O)NS(=O)(=O)c4ccc(N[C@H](CCN5CCOCC5)CSc5ccccc5)c(S(=O)(=O)C(F)(F)F)c4)cc3)CC2)C1 [Navitoclax] (partner 0.5 µM)
Summary of the method: as §1

Cell Line | relative viability (GSK126 + Luminespib; first compound 0.08 µM) | relative viability (GSK126 + Luminespib; first compound 0.253 µM) | relative viability (GSK126 + Luminespib; first compound 0.8 µM) | relative viability (GSK126 + Luminespib; first compound 2.53 µM) | relative viability (GSK126 + Luminespib; first compound 8 µM) | relative viability (Carboplatin + Phenformin; first compound 0.08 µM) | relative viability (Carboplatin + Phenformin; first compound 0.253 µM) | relative viability (Carboplatin + Phenformin; first compound 0.8 µM) | relative viability (Carboplatin + Phenformin; first compound 2.53 µM) | relative viability (Carboplatin + Phenformin; first compound 8 µM) | relative viability (GSK126 + Trametinib; first compound 0.08 µM) | relative viability (GSK126 + Trametinib; first compound 0.253 µM) | relative viability (GSK126 + Trametinib; first compound 0.8 µM) | relative viability (GSK126 + Trametinib; first compound 2.53 µM) | relative viability (GSK126 + Trametinib; first compound 8 µM) | relative viability (Carboplatin + Navitoclax; first compound 0.08 µM) | relative viability (Carboplatin + Navitoclax; first compound 0.253 µM) | relative viability (Carboplatin + Navitoclax; first compound 0.8 µM) | relative viability (Carboplatin + Navitoclax; first compound 2.53 µM) | relative viability (Carboplatin + Navitoclax; first compound 8 µM)
ABC-1 | 0.737 | 0.449 | 0.575 | 1.13 | 0.955 | 0.226 | 0.19 | 0.248 | 0.251 | 0.226 |  |  |  |  |  |  |  |  |  | 
LC-2-ad | 1 | 1.19 | 0.948 | 1.04 | 1.01 | 0.661 | 0.551 | 0.525 | 0.517 | 0.386 | 0.926 | 0.9 | 0.91 | 0.885 | 0.957 | 0.37 | 0.49 | 0.422 | 0.436 | 0.326
NCI-H460 | 0.0467 | 0.0392 | 0.0346 | 0.0287 | 0.0416 | 0.548 | 0.507 | 0.504 | 0.404 | 0.122 | 0.422 | 0.153 | 0.121 | 0.11 | 0.195 | 1.13 | 1.11 | 1.03 | 0.986 | 0.358
NCI-H1915 | 0.986 | 0.771 | 0.788 | 0.823 | 0.841 | 0.376 | 0.389 | 0.364 | 0.353 | 0.301 | 0.344 | 0.29 | 0.313 | 0.315 | 0.332 | 0.795 | 0.751 | 0.745 | 0.752 | 0.579
NCI-H1299 |  |  |  |  |  |  |  |  |  |  |  |  |  |  |  | 1.09 | 1.02 | 1.02 | 1.01 | 0.964
HOP-62 | 0.938 | 0.863 | 0.943 | 0.889 | 0.783 | 0.713 | 0.643 | 0.628 | 0.654 | 0.548 | 0.406 | 0.411 | 0.357 | 0.383 | 0.375 | 1.04 | 1.08 | 0.789 | 0.902 | 0.748
EPLC-272H | 0.485 | 0.198 | 0.595 | 0.522 | 0.237 | 0.345 | 0.347 | 0.309 | 0.298 | 0.313 | 0.353 | 0.252 | 0.279 | 0.312 | 0.258 | 1.15 | 1.18 | 0.978 | 1.29 | 1.11
NCI-H647 | 0.358 | 0.193 | 0.144 | 0.202 | 0.124 | 0.555 | 0.66 | 0.422 | 0.55 | 0.452 | 0.55 | 0.461 | 0.381 | 0.44 | 0.413 | 1.18 | 1.17 | 1.08 | 1.09 | 0.784
NCI-H1792 | 0.386 | 0.401 | 0.443 | 0.483 | 0.355 | 0.318 | 0.317 | 0.192 | 0.203 | 0.237 | 0.492 | 0.397 | 0.43 | 0.405 | 0.406 | 0.887 | 0.682 | 0.667 | 0.618 | 0.567
NCI-H1563 | 0.546 | 0.491 | 0.535 | 0.514 | 0.505 | 0.691 | 0.668 | 0.672 | 0.7 | 0.631 |  |  |  |  |  |  |  |  |  | 
NCI-H650 | 0.92 | 0.787 | 0.744 | 0.834 | 0.876 | 0.495 | 0.451 | 0.398 | 0.428 | 0.398 | 1.02 | 0.891 | 0.919 | 0.945 | 0.994 |  |  |  |  | 
NCI-H1648 |  |  |  |  |  |  |  |  |  |  | 0.544 | 0.959 | 0.409 | 0.522 | 0.445 |  |  |  |  | 
HCC-366 |  |  |  |  |  | 0.619 | 0.637 | 0.662 | 0.575 | 0.467 | 0.391 | 0.357 | 0.343 | 0.309 | 0.337 | 1.08 | 1.12 | 1.13 | 1.02 | 0.753
IA-LM |  |  |  |  |  |  |  |  |  |  |  |  |  |  |  | 0.756 | 0.553 | 0.826 | 0.675 | 0.532
NCI-H661 | 0.908 | 0.884 | 0.905 | 0.873 | 0.944 | 0.249 | 0.286 | 0.259 | 0.276 | 0.301 | 0.632 | 0.548 | 0.523 | 0.596 | 0.687 |  |  |  |  | 
NCI-H358 | 0.39 | 0.382 | 0.366 | 0.422 | 0.283 | 0.426 | 0.418 | 0.395 | 0.431 | 0.334 | 0.15 | 0.141 | 0.158 | 0.12 | 0.138 |  |  |  |  | 
Calu-6 |  |  |  |  |  |  |  |  |  |  |  |  |  |  |  | 0.931 | 0.77 | 0.824 | 0.737 | 0.296
NCI-H1703 |  |  |  |  |  |  |  |  |  |  |  |  |  |  |  | 1.31 | 1.2 | 1.11 | 1.07 | 1.49
EBC-1 |  |  |  |  |  |  |  |  |  |  |  |  |  |  |  | 0.479 | 0.364 | 0.443 | 0.401 | 0.33
HCC-78 |  |  |  |  |  | 0.829 | 0.685 | 0.641 | 0.726 | 0.744 | 0.585 | 0.792 | 0.653 | 0.696 | 0.592 | 0.782 | 0.92 | 0.707 | 0.751 | 0.816
SW 900 | 0.206 | 0.188 | 0.165 | 0.173 | 0.213 | 0.713 | 0.561 | 0.608 | 0.431 | 0.414 | 0.801 | 0.507 | 0.86 | 0.901 | 0.615 |  |  |  |  | 
NCI-H522 | 1.2 | 1.2 | 1.13 | 1.19 | 1.13 | 0.516 | 0.679 | 0.648 | 0.686 | 0.64 | 0.773 | 0.716 | 0.647 | 0.654 | 0.829 |  |  |  |  | 
A549 |  |  |  |  |  | 0.186 | 0.193 | 0.16 | 0.112 | 0.073 |  |  |  |  |  | 1.25 | 1.29 | 1.18 | 0.985 | 0.535
